Consider three molecules from US5827655A (priority 1995, dated 1998).

One test concerns the target T1, MK3 K+ channels (Mus musculus, UniProt P16390).
T1 construct: The MK3 coding region was inserted into the pSP64T cloning vector; expressed in transfected cells; host or cells: Xenopus oocytes injected with MK3 mRNA (in vitro transcript from pSP64T)
The test is described as follows: cell-based.

The subject of the next test is type n K+ channel (mice). The note with it: Table I, type n currents, mouse T cells; read-out: Blockers, half-blocking dose; cited from earlier work.
Test [1] deals with type n K+ channel (human). To be noted: Table I, type n currents, human T cells; read-out: Blockers, half-blocking dose; cited from earlier work.

T1 sequence (P16390 whole entry): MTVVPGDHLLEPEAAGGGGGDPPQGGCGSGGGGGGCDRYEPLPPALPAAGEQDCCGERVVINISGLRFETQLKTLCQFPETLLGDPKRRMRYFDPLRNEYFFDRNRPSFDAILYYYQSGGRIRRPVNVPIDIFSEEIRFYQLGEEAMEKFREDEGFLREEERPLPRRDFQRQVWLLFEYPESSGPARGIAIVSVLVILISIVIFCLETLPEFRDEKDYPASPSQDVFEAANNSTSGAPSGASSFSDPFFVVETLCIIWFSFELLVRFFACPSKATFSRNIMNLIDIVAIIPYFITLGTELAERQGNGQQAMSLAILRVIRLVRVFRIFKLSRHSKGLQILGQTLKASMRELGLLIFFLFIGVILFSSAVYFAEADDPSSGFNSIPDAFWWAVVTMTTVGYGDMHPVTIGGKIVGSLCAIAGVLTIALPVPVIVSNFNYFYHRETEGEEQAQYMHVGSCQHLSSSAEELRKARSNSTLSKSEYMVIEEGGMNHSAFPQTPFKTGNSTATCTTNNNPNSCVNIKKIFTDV
Description for MK3 K+ channels: Electrophysiology. Experiments were carried out on Xenopus oocytes with two-electrode voltage-clamp and patch-clamp techniques (17). All experiments were done at room temperature (22°-26° C.). […] The pipette solution was 3M KCl.
The patch-clamp amplifier (List L/M-EPC 7, Adams and List Associates, Ltd., Great Neck, N.Y.) was used in the voltage-clamp mode without series resistance compensation. Patch-clamp electrodes were pulled from Accu-fill 90 Micropets (Becton, Dickinson & Co., Parsippany, N.J.) in three stages, coated with Sylgard (Dow Corning Corp., Midland, Mich.) and fire-polished to resistances, measured in the bath, of 2-7M. In all patch-clamp experiments, the command input of the patch-clamp amplifier was controlled by a computer (PDP 11/73) via a digital-analog converter, and membrane currents were recorded at a band-width of 2 kHz. The holding potential was adjusted in all experiments to E=-80 mV. Correction for capacitative currents was achieved by analog subtraction. […] Due to this run-down the potency of all blockers was determined as the reduction of the mean K^+ current before and after drug treatment.
Xenopus oocytes express a high density of voltage-activated K^+ channels following injection of 70 nl of 0.01 /μg/μl MK3 mRNA. […] Outside-out patches of oocyte membrane (70 nl of 0.1 μg/μl MK3 mRNA injected) were used for measurement of gating kinetics, pharmacological sensitivity, and single channel properties.

On to `CC[N+](CC)(CC)CC` [TEA, tetraethylammonium], for which the Kd (in general, the free concentration of one partner at which half of the binding sites on the other are occupied at equilibrium, for simple one-to-one binding) at MK3 K+ channels (FIG. 3C, outside-out patch, oocyte injected with MK3 mRNA, read-out: Kd, dose-response curve of drugs blocking MK3 K+ current) was found to be 11 mM. For the same molecule, on MK3 K+ channels (Table I, MK3 currents in oocytes, read-out: Blockers, half-blocking dose), the IC50 is 11 mM.
Charybdotoxin [CTX]: on MK3 K+ channels (CTX from both sources (C. Miller and M. Garcia)), the “Block of MK3 channels in oocytes (in words)” value is recorded as “blocked MK3 channels in oocytes”.
For `Nc1ccncc1` [4-AP, 4-aminopyridine], the values for the IC50 (in the test on type n K+ channel (mice); in test [1]) were […] and 0.19 mM, respectively.
